The values that follow come from patent US8541588B2, “Sulfonamide derivatives” (Pfizer Limited, priority 2009, dated 2013).

Molecules are shown by their SMILES. Some results are limits rather than exact numbers.

The target in this test is T1, Nav1.7 (or SCN9A) channel; HEK cells stably transfected with hSCN9A (Homo sapiens, UniProt Q15858).
T1 construct: expressed in transfected cells
T1 sequence (Q15858 whole entry): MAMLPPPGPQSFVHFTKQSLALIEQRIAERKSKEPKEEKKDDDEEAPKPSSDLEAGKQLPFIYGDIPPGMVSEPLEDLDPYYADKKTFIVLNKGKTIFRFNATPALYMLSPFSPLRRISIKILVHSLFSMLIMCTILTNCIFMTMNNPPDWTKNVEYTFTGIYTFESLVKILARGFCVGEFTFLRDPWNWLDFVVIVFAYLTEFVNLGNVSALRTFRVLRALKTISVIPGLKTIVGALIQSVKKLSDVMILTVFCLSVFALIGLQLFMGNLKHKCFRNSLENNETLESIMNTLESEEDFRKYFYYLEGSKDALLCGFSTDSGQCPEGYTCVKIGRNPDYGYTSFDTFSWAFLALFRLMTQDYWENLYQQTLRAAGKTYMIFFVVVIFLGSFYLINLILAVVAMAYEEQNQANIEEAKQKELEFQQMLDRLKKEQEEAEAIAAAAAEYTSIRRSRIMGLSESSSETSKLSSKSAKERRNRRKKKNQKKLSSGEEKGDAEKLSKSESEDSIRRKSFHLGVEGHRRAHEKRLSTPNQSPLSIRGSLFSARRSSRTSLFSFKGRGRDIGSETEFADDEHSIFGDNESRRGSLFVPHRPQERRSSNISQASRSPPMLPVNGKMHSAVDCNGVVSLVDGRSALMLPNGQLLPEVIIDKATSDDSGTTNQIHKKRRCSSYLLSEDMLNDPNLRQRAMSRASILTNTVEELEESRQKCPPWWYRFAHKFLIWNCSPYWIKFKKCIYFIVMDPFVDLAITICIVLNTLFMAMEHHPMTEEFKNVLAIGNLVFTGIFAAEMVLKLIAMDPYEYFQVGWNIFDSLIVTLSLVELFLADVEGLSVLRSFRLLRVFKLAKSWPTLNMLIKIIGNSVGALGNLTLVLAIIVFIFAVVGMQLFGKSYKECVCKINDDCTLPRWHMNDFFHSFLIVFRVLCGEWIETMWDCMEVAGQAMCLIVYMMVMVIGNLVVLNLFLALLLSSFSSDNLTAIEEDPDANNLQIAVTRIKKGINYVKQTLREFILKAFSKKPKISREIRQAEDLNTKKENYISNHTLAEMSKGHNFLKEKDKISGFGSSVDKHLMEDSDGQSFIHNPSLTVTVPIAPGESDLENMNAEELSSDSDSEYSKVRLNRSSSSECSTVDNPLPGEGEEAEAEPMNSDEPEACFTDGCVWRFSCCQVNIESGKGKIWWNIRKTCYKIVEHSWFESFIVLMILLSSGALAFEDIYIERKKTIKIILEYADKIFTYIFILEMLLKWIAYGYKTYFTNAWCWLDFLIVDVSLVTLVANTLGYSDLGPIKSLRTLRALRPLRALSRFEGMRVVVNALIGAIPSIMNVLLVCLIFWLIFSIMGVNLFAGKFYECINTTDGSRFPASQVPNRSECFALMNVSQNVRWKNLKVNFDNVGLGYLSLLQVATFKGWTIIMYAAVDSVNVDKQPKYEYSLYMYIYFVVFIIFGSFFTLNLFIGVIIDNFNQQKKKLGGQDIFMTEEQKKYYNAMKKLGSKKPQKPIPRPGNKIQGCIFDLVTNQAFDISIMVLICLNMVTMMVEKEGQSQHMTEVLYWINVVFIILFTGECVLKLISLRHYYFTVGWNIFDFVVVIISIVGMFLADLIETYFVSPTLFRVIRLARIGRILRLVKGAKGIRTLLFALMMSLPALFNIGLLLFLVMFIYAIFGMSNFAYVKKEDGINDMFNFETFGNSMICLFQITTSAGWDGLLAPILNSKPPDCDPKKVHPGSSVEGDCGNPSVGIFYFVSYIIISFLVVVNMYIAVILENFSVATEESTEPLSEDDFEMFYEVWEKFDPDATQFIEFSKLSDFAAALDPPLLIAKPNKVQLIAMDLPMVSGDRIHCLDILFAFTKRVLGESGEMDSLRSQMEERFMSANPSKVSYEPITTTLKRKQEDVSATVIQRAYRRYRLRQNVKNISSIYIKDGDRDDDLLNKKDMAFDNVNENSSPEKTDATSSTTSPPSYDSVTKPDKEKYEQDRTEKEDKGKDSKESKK
Description: Nav1.7 block, PatchXpress 7000 automated whole-cell voltage clamp, estimated IC50 (EIC50). Conditions: PatchXpress platform; hSCN9A HEK cells held at V1/2 of inactivation; estimated IC50. The format is cell-based.
Consider `Cc1cccc(-c2cccc(OC(F)(F)F)c2)c1Oc1ccc(S(=O)(=O)Nc2ncns2)cc1C#N` [Example 37, 3-cyano-4-{[3-methyl-3′-(trifluoromethoxy)biphenyl-2-yl]oxy}-N-1,2,4-thiadiazol-5-ylbenzenesulfonamide], for which the half-inhibitory concentration (IC50) is 30.9 µM. Next, `Cc1cccc(-c2cccc(F)c2)c1Oc1ccc(S(=O)(=O)Nc2ncns2)cc1C#N` [Example 38, 3-cyano-4-[(3′-fluoro-3-methylbiphenyl-2-yl)oxy]-N-1,2,4-thiadiazol-5-ylbenzenesulfonamide]: 15.5 µM; `Cc1cccc(-c2ccc(F)cc2)c1Oc1ccc(S(=O)(=O)Nc2ncns2)cc1C#N` [Example 39, 3-cyano-4-[(4′-fluoro-3-methylbiphenyl-2-yl)oxy]-N-1,2,4-thiadiazol-5-ylbenzenesulfonamide]: 2.03 µM; `Cc1cccc(-c2ccc(OC(F)(F)F)cc2)c1Oc1ccc(S(=O)(=O)Nc2ncns2)cc1C#N` [Example 40, 3-cyano-4-{[3-methyl-4′-(trifluoromethoxy)biphenyl-2-yl]oxy}-N-1,2,4-thiadiazol-5-ylbenzenesulfonamide]: 5.74 µM. On to `COc1ccc(-c2cccc(C)c2Oc2ccc(S(=O)(=O)Nc3ncns3)cc2C#N)cc1F` [Example 41, 3-cyano-4-[(3′-fluoro-4′-methoxy-3-methylbiphenyl-2-yl)oxy]-N-1,2,4-thiadiazol-5-ylbenzenesulfonamide], for which the IC50 was 10.9 µM. Next, `COc1ccc(-c2cccc(C)c2Oc2ccc(S(=O)(=O)Nc3ncns3)cc2C#N)cc1` [Example 42, 3-cyano-4-[(4′-methoxy-3-methylbiphenyl-2-yl)oxy]-N-1,2,4-thiadiazol-5-ylbenzenesulfonamide]: 1.73 µM; `Cc1cccc(-c2ccccc2F)c1Oc1ccc(S(=O)(=O)Nc2ncns2)cc1C#N` [Example 43, 3-cyano-4-[(2′-fluoro-3-methylbiphenyl-2-yl)oxy]-N-1,2,4-thiadiazol-5-ylbenzenesulfonamide]: 21.7 µM. Consider `Cc1cccc(-c2ccc(F)c(F)c2)c1Oc1ccc(S(=O)(=O)Nc2ncns2)cc1C#N` [Example 44, 3-cyano-4-[(3′,4′-difluoro-3-methylbiphenyl-2-yl)oxy]-N-1,2,4-thiadiazol-5-ylbenzenesulfonamide], for which the IC50 is 5.93 µM. Next, `Cc1cccc(-c2cc(F)cc(F)c2)c1Oc1ccc(S(=O)(=O)Nc2ncns2)cc1C#N` [Example 45, 3-cyano-4-[(3′,5′-difluoro-3-methylbiphenyl-2-yl)oxy]-N-1,2,4-thiadiazol-5-ylbenzenesulfonamide]: 30.44 µM; `N#Cc1cc(S(=O)(=O)Nc2ncns2)ccc1Oc1ccc(F)cc1-c1ccc(F)cc1F` [Example 46, 3-cyano-N-1,2,4-thiadiazol-5-yl-4-[(2′,4′,5-trifluorobiphenyl-2-yl)oxy]benzenesulfonamide]: 0.21 µM. Next, `COc1ccc(-c2ccccc2Oc2ccc(S(=O)(=O)Nc3ncns3)cc2C#N)cc1F` [Example 48, 3-cyano-4-[(3′-fluoro-4′-methoxybiphenyl-2-yl)oxy]-N-1,2,4-thiadiazol-5-ylbenzenesulfonamide]: 0.9 µM; `N#Cc1cc(S(=O)(=O)Nc2ncns2)ccc1Oc1ccccc1-c1ccc(F)cc1` [Example 49, 3-cyano-4-[(4′-fluorobiphenyl-2-yl)oxy]-N-1,2,4-thiadiazol-5-ylbenzenesulfonamide]: 0.16 µM; `N#Cc1cc(S(=O)(=O)Nc2ncns2)ccc1Oc1ccccc1-c1ccccc1F` [Example 50, 3-cyano-4-[(2′-fluorobiphenyl-2-yl)oxy]-N-1,2,4-thiadiazol-5-ylbenzenesulfonamide]: 0.84 µM. `COc1ccc(-c2ccccc2Oc2ccc(S(=O)(=O)Nc3ncns3)cc2C#N)cc1` [Example 51, 3-cyano-4-[(4′-methoxybiphenyl-2-yl)oxy]-N-1,2,4-thiadiazol-5-ylbenzenesulfonamide]: the half-inhibitory concentration (IC50) was 0.33 µM.

As for `N#Cc1cc(S(=O)(=O)Nc2ncns2)ccc1Oc1ccccc1-c1ccc(F)c(F)c1` [Example 52, 3-cyano-4-[(3′,4′-difluorobiphenyl-2-yl)oxy]-N-1,2,4-thiadiazol-5-ylbenzenesulfonamide], the concentration for half-maximal inhibition (IC50) is 0.36 µM. On to `N#Cc1cc(S(=O)(=O)Nc2ncns2)ccc1Oc1ccccc1-c1cc(F)cc(F)c1` [Example 53, 3-cyano-4-[(3′,5′-difluorobiphenyl-2-yl)oxy]-N-1,2,4-thiadiazol-5-ylbenzenesulfonamide], for which the IC50 was 3.54 µM.

For the molecule `CC(C)Oc1ccc(-c2ccccc2Oc2ccc(S(=O)(=O)Nc3ncns3)cc2C#N)cc1` [Example 54, 3-cyano-4-[(4′-isopropoxybiphenyl-2-yl)oxy]-N-1,2,4-thiadiazol-5-ylbenzenesulfonamide], the half-inhibitory concentration (IC50) is 0.26 µM. Next, `N#Cc1cc(S(=O)(=O)Nc2ncns2)ccc1Oc1ccccc1-c1cccc(OC(F)(F)F)c1` [Example 55, 3-cyano-N-1,2,4-thiadiazol-5-yl-4-{[3′-(trifluoromethoxy)biphenyl-2-yl]oxy}benzenesulfonamide]: 0.92 µM; `N#Cc1cc(S(=O)(=O)Nc2ncns2)ccc1Oc1ccccc1-c1ccc(F)cc1F` [Example 56, 3-cyano-4-[(2′,4′-difluorobiphenyl-2-yl)oxy]-N-1,2,4-thiadiazol-5-ylbenzenesulfonamide]: 0.38 µM; `N#Cc1cc(S(=O)(=O)Nc2ncns2)ccc1Oc1ccccc1-c1ccc(OC(F)(F)F)cc1` [Example 57, 3-cyano-N-1,2,4-thiadiazol-5-yl-4-{[4′-(trifluoromethoxy)biphenyl-2-yl]oxy}benzenesulfonamide]: 0.66 µM. In the case of `N#Cc1cc(S(=O)(=O)Nc2ncns2)ccc1Oc1cc(C(F)(F)F)nn1-c1ccc(F)cc1F` [Example 58, 3-cyano-4-{[1-(2,4-difluorophenyl)-3-(trifluoromethyl)-1H-pyrazol-5-yl]oxy}-N-1,2,4-thiadiazol-5-ylbenzenesulfonamide], the 50% inhibitory concentration (IC50) was 0.34 µM. Next, `N#Cc1cc(S(=O)(=O)Nc2ncns2)ccc1Oc1cc(C(F)(F)F)nn1-c1ccc(F)c(F)c1` [Example 59, 3-cyano-4-{[1-(3,4-difluorophenyl)-3-(trifluoromethyl)-1H-pyrazol-5-yl]oxy}-N-1,2,4-thiadiazol-5-ylbenzenesulfonamide]: 2.28 µM. Next, `N#Cc1cc(S(=O)(=O)Nc2ncns2)ccc1Oc1ccc(CC2CC2)cc1` [Example 60, 3-cyano-4-[4-(cyclopropylmethyl)phenoxy]-N-1,2,4-thiadiazol-5-ylbenzenesulfonamide]: 2.79 µM; `N#Cc1cc(S(=O)(=O)Nc2ncns2)ccc1Oc1ccc(CN2CCC2)cc1F` [Example 61, 4-[4-(azetidin-1-ylmethyl)-2-fluorophenoxy]-3-cyano-N-1,2,4-thiadiazol-5-ylbenzenesulfonamide]: 25.7 µM. Next, `Cc1n[nH]c(C)c1-c1ccccc1Oc1ccc(S(=O)(=O)Nc2ncns2)cc1C#N` [Example 62, 3-cyano-4-[2-(3,5-dimethyl-1H-pyrazol-4-yl)phenoxy]-N-1,2,4-thiadiazol-5-ylbenzenesulfonamide]: 3.98 µM. Consider `N#Cc1cc(S(=O)(=O)Nc2ncns2)ccc1Oc1ccccc1Oc1ccncc1` [Example 63, 3-cyano-4-[2-(pyridin-4-yloxy)phenoxy]-N-1,2,4-thiadiazol-5-ylbenzenesulfonamide], for which the concentration for half-maximal inhibition (IC50) is 2.35 µM. For the molecule `Cn1cc(-c2ccc(Cl)cc2)c(Oc2ccc(S(=O)(=O)Nc3ncns3)cc2C#N)n1` [Example 64, 4-{[4-(4-chlorophenyl)-1-methyl-1H-pyrazol-3-yl]oxy}-3-cyano-N-1,2,4-thiadiazol-5-ylbenzenesulfonamide], the half-inhibitory concentration (IC50) is 0.78 µM. Next, `COc1ccc(-n2cc(Oc3ccc(S(=O)(=O)Nc4ncns4)cc3C#N)c(C(C)C)n2)cc1` [Example 65, 3-cyano-4-{[3-isopropyl-1-(4-methoxyphenyl)-1H-pyrazol-4-yl]oxy}-N-1,2,4-thiadiazol-5-ylbenzenesulfonamide]: 12.2 µM. On to `Cc1cn(Cc2ccccc2)nc1Oc1ccc(S(=O)(=O)Nc2ncns2)cc1C#N` [Example 66, 4-[(1-benzyl-4-methyl-1H-pyrazol-3-yl)oxy]-3-cyano-N-1,2,4-thiadiazol-5-ylbenzenesulfonamide], for which the half-inhibitory concentration (IC50) was 2.66 µM. Take `CC(C)c1nn(-c2ccccc2Cl)cc1Oc1ccc(S(=O)(=O)Nc2ncns2)cc1C#N` [Example 67, 4-{[1-(2-chlorophenyl)-3-isopropyl-1H-pyrazol-4-yl]oxy}-3-cyano-N-1,2,4-thiadiazol-5-ylbenzenesulfonamide]: the IC50 is 4.22 µM. Take `N#Cc1cc(S(=O)(=O)Nc2ncns2)ccc1Oc1ccccc1Oc1ccccc1` [Example 68, 3-cyano-4-(2-phenoxyphenoxy)-N-1,2,4-thiadiazol-5-ylbenzenesulfonamide]: the half-maximal inhibitory concentration (IC50) is 0.77 µM. Next, `CN1C(=O)CCC1c1ccccc1Oc1ccc(S(=O)(=O)Nc2ncns2)cc1C#N` (stereo not drawn) [Example 69, 3-cyano-4-[2-(1-methyl-5-oxopyrrolidin-2-yl)phenoxy]-N-1,2,4-thiadiazol-5-ylbenzenesulfonamide]: 36.1 µM. Take `Cn1nccc1-c1ccccc1Oc1ccc(S(=O)(=O)Nc2ncns2)cc1C#N` [Example 70, 3-cyano-4-[2-(1-methyl-1H-pyrazol-5-yl)phenoxy]-N-1,2,4-thiadiazol-5-ylbenzenesulfonamide]: the IC50 is 0.11 µM. Next, `Cn1nccc1-c1cc(Cl)cc(Cl)c1Oc1ccc(S(=O)(=O)Nc2ncns2)cc1C#N` [Example 71, 3-cyano-4-[2,4-dichloro-6-(1-methyl-1H-pyrazol-5-yl)phenoxy]-N-1,2,4-thiadiazol-5-ylbenzenesulfonamide]: 12.5 µM; `CCn1nc(C)c(-c2ccccc2Oc2ccc(S(=O)(=O)Nc3ncns3)cc2C#N)c1C` [Example 72, 3-cyano-4-[2-(1-ethyl-3,5-dimethyl-1H-pyrazol-4-yl)phenoxy]-N-1,2,4-thiadiazol-5-ylbenzenesulfonamide]: above 0.3 µM; `Cn1nccc1-c1cc(F)cc(F)c1Oc1ccc(S(=O)(=O)Nc2ncns2)cc1C#N` [Example 73, 3-cyano-4-[2,4-difluoro-6-(1-methyl-1H-pyrazol-5-yl)phenoxy]-N-1,2,4-thiadiazol-5-ylbenzenesulfonamide]: 23.4 µM.
